Results taken from patent publication US9242985B2, “Structural mimetics of proline-rich peptides and use thereof” (priority 2011, dated 2016).
No end group written: not given here.

How the values were obtained:
Type in all cases: binding
EVH1 domain (VASP-EVH1) [1] = target: T1, EVH1 domain (VASP-EVH1) (Homo sapiens, UniProt P50552); assay: Bonding affinity to EVH1 domain by fluorescence titration
Text: (§1) With the aid of the synthetic compound 85, by way of an example, the ligand peptides were synthetized with partially or completely substituted proline sequences and then examined for their interaction with the EVH1 domain (p=component 85). It was found therein that, due to the insertion of the mimetic 85, it was possible to increase the bonding affinity of the ligand peptides relative to the domain.
(§2) This is summarized in Table 1 below, which lists the bonding affinities of the ligand peptides as well as of the underlying native peptide ligands.
(§3) The bonding affinities were determined by means of fluorescence titration and isothermal calorimetry (p=component 85, wherein x denotes the already known PPII-mimetic amino acid according to structure 86 (presently as Fmoc-protected amino acid); and “2-Cl—F” stands for 2-Cl-phenylalanine).

EVH1 domain (VASP-EVH1) [2] = target: T1, EVH1 domain (VASP-EVH1); assay: Bonding affinity to EVH1 domain by isothermal calorimetry (ITC)
Text: as §1, §2, §3

VASP-EVH1 = VASP-EVH1 (Homo sapiens, UniProt P50552); assay: Further experiments: bonding affinity of ligand peptides to the domain (method not given)
Text: In addition, the observed increase in affinity with the compounds according to the invention allows for the first time ever to forego using natural amino acids completely, while still preserving the ability to bind to the EVH1 domains: […]

VASP-EVH1 domain = VASP-EVH1 domain (Homo sapiens, UniProt P50552)
Sequence of VASP-EVH1 domain (P50552 2-113): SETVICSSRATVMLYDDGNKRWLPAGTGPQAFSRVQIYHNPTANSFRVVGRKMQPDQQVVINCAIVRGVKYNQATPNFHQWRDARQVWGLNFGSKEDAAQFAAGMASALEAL
Text: In addition, based on a number of different test ligand peptides, it was possible to gain an overview of the bonding affinities.

T1 sequence (P50552 2-113): as above
Sequence of VASP-EVH1 (P50552 2-113 limits assumed): as the sequence (P50552 2-113) above

CC(=O)N[C@@H](CO)C(=O)N[C@@H](Cc1ccccc1)C(=O)N[C@@H](CCC(=O)O)C(=O)N[C@@H](Cc1ccccc1Cl)C(=O)N1CCC[C@H]1C(=O)N1CCC[C@H]1C(=O)N1CCC[C@H]1C(=O)N1CCC[C@H]1C(=O)N[C@H](C(=O)N[C@@H](CCC(=O)O)C(=O)N[C@@H](CC(=O)O)C(=O)N[C@@H](CCC(=O)O)C(=O)N[C@@H](CC(C)C)C(N)=O)[C@@H](C)O
Kd (EVH1 domain (VASP-EVH1) [1]): 5 µM
Kd (EVH1 domain (VASP-EVH1) [2]): 2000 nM

Ac-FPPPP [Ac-(SEQ ID NO: 4)-OH]
Kd (VASP-EVH1): > 500 µM

FPPPPT [FPPPPT]
bonding affinity KD (VASP-EVH1 domain): no measurable affinity
